System: human pancreatic cancer cells (Panc-1)
Assay: Live cell imaging by confocal microscopy, binding/uptake to Panc-1 cells
Assay type: cell-based
Details: Panc-1, 2 h incubation, carboxyfluorescein loaded
Method: Carboxyfluorescein was encapsulated during the preparation of the nanoparticles. Following two hours of incubation with Panc-1 cancer cells, the cells were treated with concanavalin A (Con A) Alexa Fluor 647 conjugate. Live cell imaging analysis was performed by confocal microscopy (FIGS. 8 and 13). […] These findings support the proposed model for the co-assembly of the two peptides. As assumed, the co-assembly with Boc-FF which serves as a spacer, enabled the binding of PTR analog to the somatostatin receptor (FIG. 2b).
Panc-1 and HEK-293T cells were cultured (100,000 cells) on a cell culture dish with a glass bottom (35 mm, Greiner Bio-one). In the following day cells were incubated for two hours at 37° C. under various conditions: carboxyfluorescein (15 μM), Boc-FF (0.12 mM) and carboxyfluorescein (15 μM), Fmoc-FF-PEG2-PTR (0.3 mM) encapsulated with carboxyfluorescein (15 μM), PTR-3207-86 (0.3 mM), Fmoc-FF-PEG2-PTR (0.3 mM):Boc-FF (1:4) nanospheres encapsulated with carboxyfluorescein (15 μM). After incubation, cells were washed with PBS buffer and were treated with 10 μg/ml Concanavalin A (Con A) Alexa Fluor 647 Conjugate (Invitrogen, Carlsbad, Calif.) for 15 minutes and washed again with PBS. Live cell imaging was conducted using LSM 510 Meta confocal laser scanning microscope (Carl Zeiss, Jena, Germany).

With carboxyfluorescein the “fluorescence observed in cells (binding/uptake)” value was “No fluorescence was observed”.

From US11389544B2, “Formation of functionalized cancer targeting nanoparticles by supramolecular co-assembly” (RAMOT AT TEL-AVIV UNIVERSITY LTD., priority 2016, dated 2022)
